The supplement of paper PMC4862054

Key:
Settings in all cases: incubation time: 72 h
MDA-MB-436 [1] = assay: normalised response (% of control), CellTiter-Glo; higher = more viable cells (100 = DMSO, 0 = benzethonium chloride kill control)
Outline: (§1)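 Breast cancer cell lines were exposed for 72 h in 384-well plates to compound at 5 concentrations, 10-fold apart, covering a 10,000-fold range fixed for each compound. Plates were read for CellTox Green fluorescence and CellTiter-Glo luminescence and normalised to 0.1 % DMSO (100) and a positive kill control (0). Each value is the normalised signal at one concentration of the series.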

MCF-10A [2] = assay: as above
Outline: as §1

MDA-MB-468 [3] = assay: as above
Outline: as §1

MFM-223 [4] = assay: as above
Outline: as §1

CAL-85-1 [5] = assay: as above
Outline: as §1

Hs578T [6] = assay: as above
Outline: as §1

SK-BR-3 = assay: as above
Outline: as §1

HCC1599 [7] = assay: as above
Outline: as §1

HCC1143 [8] = assay: as above
Outline: as §1

CAL-120 [9] = assay: as above
Outline: as §1

HDQ-P1 [10] = assay: as above
Outline: as §1

CAL-148 [11] = assay: as above
Outline: as §1

MDA-MB-453 [12] = assay: as above
Outline: as §1

BT-549 [13] = assay: as above
Outline: as §1

BT-474 [14] = assay: as above
Outline: as §1

CAL-51 [15] = assay: as above
Outline: as §1

HCC1937 [16] = assay: as above
Outline: as §1

MDA-MB-231 [17] = assay: as above
Outline: as §1

DU-4475 [18] = assay: as above
Outline: as §1

MCF-10A [19] = assay: normalised response (% of control), CellTox Green; higher = less cell death (100 = DMSO, 0 = benzethonium chloride kill control)
Outline: as §1

MDA-MB-468 [20] = assay: as above
Outline: as §1

MFM-223 [21] = assay: as above
Outline: as §1

CAL-85-1 [22] = assay: as above
Outline: as §1

Hs578T [23] = assay: as above
Outline: as §1

HCC1599 [24] = assay: as above
Outline: as §1

HCC1143 [25] = assay: as above
Outline: as §1

CAL-120 [26] = assay: as above
Outline: as §1

HDQ-P1 [27] = assay: as above
Outline: as §1

CAL-148 [28] = assay: as above
Outline: as §1

MDA-MB-453 [29] = assay: as above
Outline: as §1

BT-549 [30] = assay: as above
Outline: as §1

BT-474 [31] = assay: as above
Outline: as §1

CAL-51 [32] = assay: as above
Outline: as §1

HCC1937 [33] = assay: as above
Outline: as §1

MDA-MB-231 [34] = assay: as above
Outline: as §1

DU-4475 [35] = assay: as above
Outline: as §1

MDA-MB-436 [36] = assay: as above
Outline: as §1

Structure (SMILES)	normalised response (MDA-MB-436 [1])	normalised response (MCF-10A [2])	normalised response (MDA-MB-468 [3])	normalised response (MFM-223 [4])	normalised response (CAL-85-1 [5])	normalised response (Hs578T [6])	normalised response (SK-BR-3)	normalised response (HCC1599 [7])	normalised response (HCC1143 [8])	normalised response (CAL-120 [9])	normalised response (HDQ-P1 [10])	normalised response (CAL-148 [11])	normalised response (MDA-MB-453 [12])	normalised response (BT-549 [13])	normalised response (BT-474 [14])	normalised response (CAL-51 [15])	normalised response (HCC1937 [16])	normalised response (MDA-MB-231 [17])	normalised response (DU-4475 [18])	normalised response (MCF-10A [19])	normalised response (MDA-MB-468 [20])	normalised response (MFM-223 [21])	normalised response (CAL-85-1 [22])	normalised response (Hs578T [23])	normalised response (HCC1599 [24])	normalised response (HCC1143 [25])	normalised response (CAL-120 [26])	normalised response (HDQ-P1 [27])	normalised response (CAL-148 [28])	normalised response (MDA-MB-453 [29])	normalised response (BT-549 [30])	normalised response (BT-474 [31])	normalised response (CAL-51 [32])	normalised response (HCC1937 [33])	normalised response (MDA-MB-231 [34])	normalised response (DU-4475 [35])	normalised response (MDA-MB-436 [36])
Nc1nc(OCc2cc(Br)cs2)c2[nH]cnc2n1 [Lomeguatrib] (1000 nM)	97.6%	104%	100%	104%	104%	102%	103%	118%	101%	96.6%	102%	99.3%	105%	96.6%	103%	103%	97.8%	103%	102%	93.5%	139%	82.9%	98.9%	100%	93.2%	117%	102%	112%	99.9%	103%	108%	100%	104%	111%	104%	101%	
CN(C)C[C@@H]1CCn2cc(c3ccccc32)C2=C(C(=O)NC2=O)c2cn(c3ccccc23)CCO1 [Ruboxistaurin] (1000 nM)	92.2%	86.1%	73.8%	86.8%	103%	104%	87.7%	111%	90%	83.7%	85.8%	76.6%	96.1%	91.1%	87.3%	93%	86%	92.6%	80.7%	103%	122%	79.2%	111%		95%	109%	98.7%	98.5%	55%	95.9%	106%		78.1%	104%	97.2%	100%	106%
Cn1cncc1[C@@](N)(c1ccc(Cl)cc1)c1ccc2c(c1)c(-c1cccc(Cl)c1)cc(=O)n2C [Tipifarnib] (1 nM)	88%	94.5%	93.4%	96.3%	102%	96.2%	102%	93.1%	94.6%	92.2%	93.5%	97.3%	109%	102%	89.8%	90.2%	93.4%	99.5%	103%																		
Cn1cncc1[C@@](N)(c1ccc(Cl)cc1)c1ccc2c(c1)c(-c1cccc(Cl)c1)cc(=O)n2C [Tipifarnib] (10 nM)	88.7%	92.3%	94%	95.2%	108%	95.8%	85.1%	94.3%	101%	93.1%	87.7%	96.7%	84.6%	98.9%	94.4%	121%	82.3%	98.6%	102%																		
O=C1NC(=O)[C@@H](c2cn3c4c(cccc24)CCC3)[C@@H]1c1c[nH]c2ccccc12 [Tivantinib] (0.1 nM)	106%	101%	104%	103%	96.2%	103%	108%	107%	97.9%	101%	101%	101%	92.5%	104%	102%	87.5%	95.6%	97.8%	98.8%																		
O=C1NC(=O)[C@@H](c2cn3c4c(cccc24)CCC3)[C@@H]1c1c[nH]c2ccccc12 [Tivantinib] (1 nM)	109%	106%	104%	97.9%	96.1%	101%	113%	104%	98.9%	100%	98.7%	100%	106%	101%	107%	106%	101%	98.2%	98%																		
CC[C@]1(O)C[C@H]2CN(CCc3c([nH]c4ccccc34)[C@@](C(=O)OC)(c3cc4c(cc3OC)N(C=O)[C@H]3[C@@](O)(C(=O)OC)[C@H](OC(C)=O)[C@]5(CC)C=CCN6CC[C@]43[C@@H]65)C2)C1 [Vincristine] (0.1 nM)	116%	105%	112%	102%	99.1%	110%	102%	92.7%	103%	94.7%	99.9%	109%	107%	99.5%	97.8%	88.2%	94.1%	104%	106%																		
